Assay results reported in patent publication US9605005B2, “Alkynyl alcohols and methods of use” (Genentech, Inc., priority 2013, dated 2017).
Like-named read-outs stand apart in the source and are kept apart here.

How the values were obtained:
[1] = target: nuclear factor-kappa B (NF-kB)-inducing kinase (NIK) (Homo sapiens (Human), UniProt Q99558); assay: NIK enzyme inhibition assay (Transcreener ADP, NIK ADP-FP); assay type: biochemical; conditions: purified NIK 0.5 nM, 10 μM ATP, fluorescence polarization; read-out: NIK ADP-FP (Ki μM)
[2] = test system: p52 (NF-kB2) nuclear translocation, HeLa cells; assay: p52 (NF-kB2) nuclear translocation assay in HeLa cells (non-classical NF-kB signaling, anti-lymphotoxin beta receptor antibody stimulated); assay type: cell-based; conditions: Homo sapiens, 100 ng/mL anti-lymphotoxin beta receptor antibody for 5 hours, read-out: p52 HeLa Transloc Assay (IC50)
Experimental: (§1) Several assays were developed to profile the cellular activities of NIK inhibitors.
(§2) (2) A second set of cell assay are used to define the selectivity of NIK inhibitors toward inhibition of classical vs. non-classical NF-kB signaling and rely on quantification of the nuclear translocation of p52 (NF-kB2) and REL-A (p65) using high content cellular imaging. For the p52 (non-classical NF-kB signaling) nuclear translocation assay, HeLa cells are treated with different concentrations of compounds (0.2% DMSO final) in medium containing 10% fetal bovine serum and then stimulated with 100 ng/mL of an anti-lymphotoxin beta receptor antibody (R&D Systems) for 5 hours. In the REL-A nuclear translocation assay, HeLa cells are incubated with compounds (0.2% DMSO final) for 4.5 hours in medium containing 10% fetal bovine serum before stimulating them with 10 ng/mL tumor necrosis factor (TNF)-α (R&D Systems) for 30 minutes. Cells are fixed with 4% paraformaldehyde, permeabilized by adding 0.1% Triton X-100 in phosphate buffered saline, and then are incubated with either 2 ug/mL anti-p52 antibody (Millipore) or 400 ng/mL anti-REL-A (p65) antibody (Santa Cruz Biotechnology). Finally, the cells are incubated with an Alexa488-labeled secondary antibody (Invitrogen) and DRAQ5 DNA stain (Biostatus). Imaging is carried out using an Opera reader (Perkin Elmer) and data are analyzed with the aid of Acapella software (Perkin Elmer). The p52 or REL-Atranslocation into the nucleus is quantified by the ratio of the nuclear to cytoplasmic signal intensity. […] The compounds in listed in Table 1 have the corresponding inhibitory value (IC50 in micromolar) for NIK p52 Translocation Assay as set forth in Table 2.
(§3) The compounds in listed in Table 1 have the corresponding inhibitory values (IC50 in micromolar) for the Translocation Assays as set forth in Table 2.

[3] = test system: REL-A (p65) nuclear translocation, HeLa cells; assay: REL-A (p65) nuclear translocation assay in HeLa cells (classical NF-kB signaling, TNF-α stimulated); assay type: cell-based; conditions: Homo sapiens, 0.5 h
Experimental: as §1, §2, §3

[4] = HeLa cells, 10 ng/mL TNF-α for 30 minutes, read-out: REL-A HeLa Transloc Assay (IC50)

Sequence of nuclear factor-kappa B (NF-kB)-inducing kinase (NIK) (Q99558 whole entry): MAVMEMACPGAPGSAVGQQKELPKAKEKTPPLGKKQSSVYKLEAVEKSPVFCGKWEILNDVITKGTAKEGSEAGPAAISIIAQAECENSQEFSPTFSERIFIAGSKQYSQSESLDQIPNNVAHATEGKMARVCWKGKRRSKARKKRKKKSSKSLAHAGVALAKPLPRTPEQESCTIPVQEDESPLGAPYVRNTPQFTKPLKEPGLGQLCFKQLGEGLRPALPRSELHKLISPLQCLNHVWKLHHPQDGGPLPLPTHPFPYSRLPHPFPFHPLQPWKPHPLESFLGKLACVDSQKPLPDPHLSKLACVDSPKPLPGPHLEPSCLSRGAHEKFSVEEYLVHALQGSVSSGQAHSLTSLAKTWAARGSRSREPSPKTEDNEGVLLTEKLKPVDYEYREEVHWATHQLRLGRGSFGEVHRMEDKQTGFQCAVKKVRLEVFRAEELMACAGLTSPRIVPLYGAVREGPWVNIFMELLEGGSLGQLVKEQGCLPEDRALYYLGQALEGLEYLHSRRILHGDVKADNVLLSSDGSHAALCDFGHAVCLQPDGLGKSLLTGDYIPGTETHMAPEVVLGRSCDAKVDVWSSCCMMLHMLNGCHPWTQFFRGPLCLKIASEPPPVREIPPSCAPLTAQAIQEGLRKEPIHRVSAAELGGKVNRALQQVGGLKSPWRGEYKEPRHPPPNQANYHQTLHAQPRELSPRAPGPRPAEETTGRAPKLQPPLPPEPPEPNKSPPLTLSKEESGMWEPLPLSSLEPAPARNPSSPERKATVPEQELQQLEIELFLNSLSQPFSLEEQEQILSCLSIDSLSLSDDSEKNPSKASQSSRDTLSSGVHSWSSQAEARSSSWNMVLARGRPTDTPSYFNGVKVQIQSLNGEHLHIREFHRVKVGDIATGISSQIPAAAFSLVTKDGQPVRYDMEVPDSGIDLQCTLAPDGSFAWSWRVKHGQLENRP

CN1CC[C@@](O)(C#Cc2cccc(-c3ccn4c(C(N)=O)nc(-c5cccc(C#C[C@]6(O)CCN(C)C6=O)c5)c4c3)c2)C1=O [Compound 95, 1,7-bis[3-[2-[(3R)-3-hydroxy-1-methyl-2-oxo-pyrrolidin-3-yl]ethynyl]phenyl]imi-dazo[1,5-a]pyridine-3-carbox-amide]
Ki [1]: 0.05 nM | IC50 [2]: 86.4 nM | IC50 ([3]; HeLa, read-out: REL-A HeLa Transloc Assay (IC50) [μM]): 2 µM

CN1CC[C@@](O)(C#Cc2cccc(-n3nc(C(N)=O)c4ccc(F)cc43)c2)C1=O [Compound 189, 6-fluoro-1-[3-[2-[(3R)-3-hydroxy-1-methyl-2-oxo-pyrrolidin-3-yl]ethynyl]phenyl] indazole-3-carboxamide]
Ki [1]: 0.05 nM | IC50 [2]: 95 nM | IC50 [3, 4]: > 2 µM

Cc1nnc([C@](C)(O)C#Cc2cccc(-n3nc(C(N)=O)c4cccnc43)c2)o1 [Compound 67, 1-[3-[(3R)-3-hydroxy-3-(5-methyl-1,3,4-oxadiazol-2-yl)but-1-ynyl]phenyl]pyrazo-lo[3,4-b]pyridine-3-carbox-amide]
Ki [1]: 3.14 nM | IC50 [2]: 893 nM | IC50 [3, 4]: 20 µM

Cc1cc2c(C(N)=O)nn(-c3cccc(C#C[C@]4(O)CCN(C)C4=O)c3)c2cn1 [Compound 149, 1-[3-[2-[(3R)-3-hydroxy-1-methyl-2-oxo-pyrrolidin-3-yl]ethynyl]phenyl]-5-methyl-pyrazolo[3,4-c]pyridine-3-carboxamide]
Ki [1]: 1.08 nM | IC50 [2]: 215 nM | IC50 [3, 4]: 20 µM

COc1cc2c(cn1)c(C(N)=O)nn2-c1cccc(C#C[C@]2(O)CCN(C)C2=O)c1 [Compound 140, 1-[3-[2-[(3R)-3-hydroxy-1-methyl-2-oxo-pyrrolidin-3-yl]ethynyl]phenyl]-6-methoxy-pyrazolo[4,3-c]pyridine-3-carboxamide]
Ki [1]: 0.05 nM | IC50 [2]: 38.2 nM | IC50 [3, 4]: 8 µM

Cc1ncc2c(C(N)=O)nn(-c3cccc(C#C[C@]4(O)CCN(C)C4=O)c3)c2n1 [Compound 157, 1-[3-[2-[(3R)-3-hydroxy-1-methyl-2-oxo-pyrrolidin-3-yl]ethynyl]phenyl]-6-methyl-pyrazolo[3,4-d]pyrimidine-3-carboxamide]
Ki [1]: 0.68 nM | IC50 [2]: 157 nM | IC50 [3, 4]: 2 µM

Cc1c(Cl)c(C(N)=O)nn1-c1cc(C#C[C@]2(O)CCN(C)C2=O)ccn1 [Compound 78, 4-chloro-1-[4-[2-[(3R)-3-hy-droxy-1-methyl-2-oxo-pyrroli-din-3-yl]ethynyl]-2-pyri-dyl]-5-methyl-pyrazole-3-car-boxamide]
Ki [1]: 16.8 nM | IC50 [2]: 2710 nM | IC50 [3, 4]: 20 µM

CCOc1cc2c(cn1)c(C(N)=O)nn2-c1cccc(C#C[C@]2(O)CCN(C)C2=O)c1 [Compound 136, 6-ethoxy-1-[3-[2-[(3R)-3-hy-droxy-1-methyl-2-oxo-pyrroli-din-3-yl]ethynyl]phenyl] pyrazolo[4,3-c]pyridine-3-carboxamide]
Ki [1]: 0.39 nM | IC50 [2]: 72.6 nM | IC50 [3, 4]: 20 µM

CN1CCC[C@@](O)(C#Cc2cccc(-n3nc(C(N)=O)c4ccc(F)cc43)c2)C1=O [Compound 27, 6-fluoro-1-[3-[2-[(3R)-3-hy-droxy-1-methyl-2-oxo-3-pipe-ridyl]ethynyl]phenyl]inda-zole-3-carboxamide]
Ki [1]: 3.75 nM | IC50 [2]: 322 nM | IC50 [3, 4]: 20 µM

CN1CC[C@@](O)(C#Cc2ccc(F)c(-c3nc(C(N)=O)n4cc(Cl)ccc34)c2)C1=O [Compound 186, 6-chloro-1-[2-fluoro-5-[2-[(3R)-3-hydroxy-1-methyl-2-oxo-pyrrolidin-3-yl]ethynyl]phenyl]imidazo[1,5-a] pyridine-3-carboxamide]
Ki [1]: 0.1 nM | IC50 [2]: 36 nM | IC50 [3, 4]: > 2 µM

CN1CC[C@@](O)(C#Cc2cccc(-n3nc(C(N)=O)c4c3CCN(C(=O)OC(C)(C)C)C4)c2)C1=O [Compound 16, tert-butyl 3-carbamoyl-1-[3-[2-[(3R)-3-hydroxy-1-methyl-2-oxo-pyrrolidin-3-yl]ethynyl]phe-nyl]-6,7-dihydro-4H-pyrazolo [4,3-c]pyridine-5-carboxylate]
Ki [1]: 0.9 nM | IC50 [2]: 125 nM | IC50 [3, 4]: 20 µM

CN1CC[C@@](O)(C#Cc2cccc(-n3nc(C(N)=O)c4cc(CC#N)ccc43)c2)C1=O [Compound 41, 5-(cyanomethyl)-1-[3-[2-[(3R)-3-hydroxy-1-methyl-2-oxo-pyrrolidin-3-yl]ethynyl]phenyl]indazole-3-carboxamide]
Ki [1]: 0.32 nM | IC50 [2]: 52.5 nM | IC50 [3, 4]: 20 µM

CN1CC[C@@](O)(C#Cc2ccnc(-n3nc(C(N)=O)c4c3CCC(C)(C)C4)c2)C1=O [Compound 64, 1-[4-[2-[(3R)-3-hydroxy-1-methyl-2-oxo-pyrrolidin-3-yl]ethynyl]-2-pyridyl]-5,5-dimethyl-6,7-dihydro-4H-inda-zole-3-carboxamide]
Ki [1]: 3.06 nM | IC50 [2]: 2310 nM | IC50 [3, 4]: 3.03 µM

CN1CC[C@@](O)(C#Cc2cccc(-n3nc(C(N)=O)c4cc(OCCN5CCOCC5)ccc43)c2)C1=O [Compound 162, 1-[3-[2-[(3R)-3-hydroxy-1-methyl-2-oxo-pyrrolidin-3-yl]ethynyl]phenyl]-5-(2-morpho-linoethoxy)indazole-3-carboxamide]
Ki [1]: 0.35 nM | IC50 [2]: 237 nM | IC50 [3, 4]: 2 µM

CN1CC[C@@](O)(C#Cc2ccnc(-n3nc(C(N)=O)c4c3CCC4)c2)C1=O [Compound 56, 1-[4-[2-[(3R)-3-hydroxy-1-methyl-2-oxo-pyrrolidin-3-yl]ethynyl]-2-pyridyl]-5,6-dihydro-4H-cyclopenta[c]py-razole-3-carboxamide]
Ki [1]: 0.87 nM | IC50 [2]: 355 nM | IC50 [3, 4]: 20 µM

CN1CC[C@@](O)(C#Cc2cccc(-n3nc(C(N)=O)c4c3[C@H](O)CC4)c2)C1=O [Compound 169, (6R)-6-hydroxy-1-[3-[2-[(3R)-3-hydroxy-1-methyl-2-oxo-pyrrolidin-3-yl]ethynyl]phenyl]-5,6-dihydro-4H-cyclo-penta[c]pyrazole-3-carbox-amide]
Ki [1]: 2.96 nM | IC50 [2]: 1120 nM | IC50 [3, 4]: 20 µM

CN1CC[C@@](O)(C#Cc2cccc(-c3nc(C(N)=O)n4ccc(C(F)(F)F)cc34)c2)C1=O [Compound 91, 1-[3-[2-[(3R)-3-hydroxy-1-methyl-2-oxo-pyrrolidin-3-yl]ethynyl]phenyl]-7-(trifluoro-methyl)imidazo[1,5-a]pyri-dine-3-carboxamide]
Ki [1]: 0.15 nM | IC50 [2]: 18.9 nM | IC50 [3, 4]: 20 µM

CN1CC[C@@](O)(C#Cc2ccc(F)c(-n3nc(C(N)=O)c4c3CCC4)c2)C1=O [Compound 145, 1-[2-fluoro-5-[2-[(3R)-3-hy-droxy-1-methyl-2-oxo-pyrroli-din-3-yl]ethynyl]phenyl]-5,6-dihydro-4H-cyclopenta [c]pyrazole-3-carboxamide]
Ki [1]: 1.24 nM | IC50 [2]: 266 nM | IC50 [3, 4]: 20 µM

CN1CC[C@@](O)(C#Cc2cccc(-c3nc(C(N)=O)n4cc(CN5CCOCC5)ccc34)c2)C1=O [Compound 100, 1-[3-[2-[(3R)-3-hydroxy-1-methyl-2-oxo-pyrrolidin-3-yl]ethynyl]phenyl]-6-(morpho-linomethyl)imidazo[1,5-a]pyridine-3-carboxamide]
Ki [1]: 1.65 nM | IC50 [2]: 156 nM | IC50 [3, 4]: 2 µM

CN1CC[C@@](O)(C#Cc2cccc(-c3nn(C(N)=O)c4ccccc34)c2)C1=O [Compound 147, 3-[3-[2-[(3R)-3-hydroxy-1-methyl-2-oxo-pyrrolidin-3-yl]ethynyl]phenyl]indazole-1-carboxamide]
Ki [1]: 0.324 nM | IC50 [2]: 14.1 nM | IC50 [3, 4]: 20 µM
